Measured values taken from US20230265151A1, “GIP/GLP1 CO-AGONIST COMPOUNDS” (priority 2020, published 2023).
Read-outs that look alike come from different tables or passages of the source.

How the values were obtained:
hGLP-1R = hGLP-1R (Homo sapiens, UniProt P43220); assay: Functional cAMP formation (HTRF) in HEK-293 clonal cells expressing hGLP-1R, 0.1% bovine casein, without or with 1.0% human serum albumin; format: cell-based; set-up: expressed in transfected cells; settings: for Emax: percent of maximal response to GLP-1(7-36)NH2, arithmetic mean
How it was run: (§1)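 Cells were stimulated with peptide for 30 min at 37° C, then lysed in buffer carrying cAMP-d2 and anti-cAMP Eu3+-cryptate for a competitive HTRF read after at least 60 min at room temperature. The 665/620 nm ratio was converted to nM cAMP against a standard curve.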

[1] = molecular target: T1, human GIP receptor (hGIPR) (Homo sapiens, UniProt P48546); assay: [125I]-GIP binding, SPA with membranes of CHO cells expressing hGIPR
T1 construct: expressed in transfected cells; crude membranes
T1 sequence (P48546 22-466): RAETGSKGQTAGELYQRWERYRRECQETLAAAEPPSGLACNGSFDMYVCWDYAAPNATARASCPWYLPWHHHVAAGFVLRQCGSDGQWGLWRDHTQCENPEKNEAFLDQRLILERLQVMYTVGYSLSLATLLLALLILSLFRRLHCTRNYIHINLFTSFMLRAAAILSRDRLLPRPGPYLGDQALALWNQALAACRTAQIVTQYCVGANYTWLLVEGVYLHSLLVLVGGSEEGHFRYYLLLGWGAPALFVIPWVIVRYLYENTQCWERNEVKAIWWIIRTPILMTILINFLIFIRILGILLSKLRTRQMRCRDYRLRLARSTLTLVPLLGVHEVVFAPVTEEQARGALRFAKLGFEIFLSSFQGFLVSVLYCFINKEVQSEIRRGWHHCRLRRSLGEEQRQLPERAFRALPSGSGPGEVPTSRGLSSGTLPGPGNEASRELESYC

hGIPR = molecular target: T2, hGIPR (Homo sapiens, UniProt P48546); assay: Functional cAMP formation (HTRF) in HEK-293 clonal cells expressing hGIPR, 0.1% bovine casein, without or with 1.0% human serum albumin; format: cell-based; settings: for Emax: percent of maximal response to GIP(1-42)NH2
T2 construct: expressed in transfected cells
T2 sequence (P48546 22-466): T1 sequence (P48546 22-466)
How it was run: as §1

hGCGR = molecular target: T3, hGCGR (Homo sapiens, UniProt P47871); assay: Functional cAMP formation (HTRF) in HEK-293 clonal cells expressing hGCGR, 0.1% bovine casein, without or with 1.0% human serum albumin; format: cell-based
T3 construct: expressed in transfected cells
How it was run: as §1

[2] = molecular target: T4, human GLP-1 receptor (hGLP-1R) (Homo sapiens, UniProt P43220); assay: [125I]-GLP-1 binding, SPA with membranes of HEK293 cells expressing hGLP-1R
T4 construct: expressed in transfected cells; crude membranes

[3] = human GIPR, geometric mean (SEM, n), read-out: Binding Affinity Ki, nM (SEM, n) hGIPR
[4] = human GLP-1R, geometric mean (SEM, n), read-out: Binding Affinity Ki, nM (SEM, n) hGLP-1R
[5] = HEK293, read-out: hGLP-1R Emax, % ± SEM, cAMP, 37° C., 0.1% bovine casein
[6] = hGLP-1R EC50, nM (SEM, n), cAMP, 37° C., 0.1% bovine casein (no human serum albumin), geometric mean
[7] = hGIPR EC50, nM (SEM, n), cAMP, 37° C., 0.1% bovine casein (no human serum albumin), geometric mean
[8] = hGCGR EC50, nM (SEM, n), cAMP, 37° C., 0.1% bovine casein (no human serum albumin), geometric mean
[9] = hGCGR EC50, nM (SEM, n), cAMP, 37° C., 0.1% bovine casein and 1.0% human serum albumin, geometric mean (SEM, n)

T4 sequence (P43220 24-463): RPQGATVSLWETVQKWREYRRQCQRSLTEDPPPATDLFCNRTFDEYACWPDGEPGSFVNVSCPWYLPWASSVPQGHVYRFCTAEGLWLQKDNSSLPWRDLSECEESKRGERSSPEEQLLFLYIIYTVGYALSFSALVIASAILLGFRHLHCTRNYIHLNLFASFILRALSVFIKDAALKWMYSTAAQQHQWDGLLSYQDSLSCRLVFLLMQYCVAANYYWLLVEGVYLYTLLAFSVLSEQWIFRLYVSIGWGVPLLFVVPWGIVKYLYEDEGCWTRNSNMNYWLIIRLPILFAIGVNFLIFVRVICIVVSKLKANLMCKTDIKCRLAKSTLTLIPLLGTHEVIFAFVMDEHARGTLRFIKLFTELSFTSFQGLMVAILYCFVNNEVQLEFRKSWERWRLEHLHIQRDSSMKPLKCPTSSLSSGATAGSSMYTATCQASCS
Sequence of hGLP-1R (P43220 24-463): as above
T3 sequence (P47871 26-477): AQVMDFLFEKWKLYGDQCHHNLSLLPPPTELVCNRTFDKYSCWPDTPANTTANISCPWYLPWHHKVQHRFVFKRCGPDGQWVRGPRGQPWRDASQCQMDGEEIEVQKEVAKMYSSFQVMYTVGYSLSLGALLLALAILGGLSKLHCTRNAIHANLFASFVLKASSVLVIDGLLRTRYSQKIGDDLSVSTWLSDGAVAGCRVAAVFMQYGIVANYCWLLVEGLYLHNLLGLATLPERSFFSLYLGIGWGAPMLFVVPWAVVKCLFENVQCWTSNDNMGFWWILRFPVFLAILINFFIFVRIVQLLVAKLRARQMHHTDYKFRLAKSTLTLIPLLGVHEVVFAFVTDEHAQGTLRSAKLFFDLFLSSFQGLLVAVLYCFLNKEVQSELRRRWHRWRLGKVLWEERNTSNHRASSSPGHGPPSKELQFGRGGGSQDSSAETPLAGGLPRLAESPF

Structure (SMILES) | Ki [1, 3] [nM] | Ki [2, 4] [nM] | Emax (hGLP-1R; [5]) [%] | EC50 (hGLP-1R; [6]) [nM] | Ki [1] [nM] | EC50 (hGIPR; [7]) [nM] | EC50 (hGCGR; [8]) [nM] | EC50 (hGCGR; [9]) [nM] | Ki [2] [nM] | other results
CCCCCCCCCCCC(=O)N[C@@H](CCC(=O)NCCOCCOCC(=O)NCCOCCOCC(=O)NCCCC[C@H](NC(=O)[C@H](CCCN)NC(=O)[C@H](CC(=O)O)NC(=O)[C@H](CC(C)C)NC(=O)[C@](C)(CC(C)C)NC(=O)[C@@H](NC(=O)C(C)(C)NC(=O)[C@H](CCCCNC(=O)COCCOCCNC(=O)COCCOCCNC(=O)CC[C@H](NC(=O)CCCCCCCCCCC)C(=O)O)NC(=O)[C@H](CC(=O)O)NC(=O)[C@H](CO)NC(=O)[C@@H](NC(=O)[C@](C)(Cc1ccccc1F)NC(=O)[C@@H](NC(=O)CNC(=O)[C@H](CCC(=O)O)NC(=O)C(C)(C)NC(=O)[C@@H](N)Cc1ccc(O)cc1)[C@@H](C)O)[C@@H](C)O)[C@@H](C)CC)C(=O)N[C@@H](C)C(=O)N[C@@H](CCC(N)=O)C(=O)NC(C)(C)C(=O)N[C@@H](Cc1ccncc1)C(=O)N[C@@H](Cc1ccccc1)C(=O)N[C@H](C(=O)N[C@H](CCC(=O)O)C(=O)N[C@@](C)(Cc1ccc(O)cc1)C(=O)N[C@@H](CC(C)C)C(=O)N[C@H](C(=O)N[C@@H](CCC(=O)O)C(=O)NCC(=O)NCC(=O)N1CCC[C@H]1C(=O)N[C@@H](CO)C(=O)N[C@@H](CO)C(=O)NCC(=O)N[C@@H](C)C(=O)N1CCC[C@H]1C(=O)N1CCC[C@H]1C(=O)N1CCC[C@H]1C(=O)N[C@@H](CO)C(N)=O)[C@@H](C)CC)[C@@H](C)CC)C(=O)O [Example 415] | 0.0152 | 0.156 |  |  |  |  |  |  |  | Emax (hGLP-1R; HEK293, cAMP, 37° C., 0.1% bovine casein, read-out: hGLP-1R Emax, % ± SEM): 109%; EC50 (hGLP-1R; cAMP, 37° C., 0.1% bovine casein (no human serum albumin), geometric mean, read-out: hGLP-1R EC50, nM (SEM, n)): 0.122 nM; Emax (hGIPR; HEK293, cAMP, 37° C., 0.1% bovine casein and 1.0% human serum albumin, read-out: hGIPR Emax, % ± SEM): 93.9%; EC50 (hGIPR; cAMP, 37° C., 0.1% bovine casein (no human serum albumin), geometric mean, read-out: hGIPR EC50, nM (SEM, n)): 0.00991 nM; EC50 (hGCGR; cAMP, 37° C., 0.1% bovine casein (no human serum albumin), geometric mean, read-out: hGCGR EC50, nM (SEM, n)): > 9950 nM; EC50 (hGCGR; cAMP, 37° C., 0.1% bovine casein and 1.0% human serum albumin, geometric mean (SEM, n), read-out: hGCGR EC50, nM (SEM, n)): > 9950 nM
CC[C@H](C)[C@H](NC(=O)[C@H](CC(C)C)NC(=O)[C@](C)(Cc1ccc(O)cc1)NC(=O)[C@H](CCCCNC(=O)COCCOCCNC(=O)CCCCCNC(=O)CC[C@H](NC(=O)CCCCCCCCCOc1ccc(C(=O)O)cc1)C(=O)O)NC(=O)[C@@H](NC(=O)[C@H](Cc1ccccc1)NC(=O)[C@H](CCCN)NC(=O)C(C)(C)NC(=O)[C@H](CCC(N)=O)NC(=O)[C@H](C)NC(=O)[C@H](CCC(N)=O)NC(=O)[C@H](CCCN)NC(=O)[C@H](CC(=O)O)NC(=O)[C@H](CC(C)C)NC(=O)[C@](C)(CC(C)C)NC(=O)[C@@H](NC(=O)C(C)(C)NC(=O)[C@H](Cc1ccncc1)NC(=O)[C@H](CC(=O)O)NC(=O)[C@H](CO)NC(=O)[C@@H](NC(=O)[C@](C)(Cc1ccccc1F)NC(=O)[C@@H](NC(=O)CNC(=O)[C@H](CCC(=O)O)NC(=O)C(C)(C)NC(=O)[C@@H](N)Cc1ccc(O)cc1)[C@@H](C)O)[C@@H](C)O)[C@@H](C)CC)[C@@H](C)CC)C(=O)N[C@@H](CCCCNC(=O)COCCOCCNC(=O)CCCCCNC(=O)CC[C@H](NC(=O)CCCCCCCCCOc1ccc(C(=O)O)cc1)C(=O)O)C(=O)NCC(=O)NCC(=O)N1CCC[C@H]1C(=O)N[C@@H](CO)C(=O)N[C@@H](CO)C(=O)NCC(=O)N[C@@H](C)C(=O)N1CCC[C@H]1C(=O)N1CCC[C@H]1C(=O)N1CCC[C@H]1C(=O)N[C@@H](CO)C(N)=O [Example 453] |  |  | 116 | 0.2 | 0.013 | 0.0139 | > 9950 | > 9950 | 0.123 | EC50 (hGLP-1R; hGLP-1R EC50, nM (SEM, n), cAMP, 37° C., 0.1% bovine casein and 1.0% human serum albumin, geometric mean (SEM, n)): 5.47 nM; Emax (hGIPR; HEK293, read-out: hGIPR Emax, % ± SEM, cAMP, 37° C., 0.1% bovine casein and 1.0% human serum albumin): 92%
CCCCCCCCCCCCCCCC(=O)N[C@@H](CCC(=O)NCCOCCOCC(=O)NCCCC[C@H](NC(=O)CNC(=O)CNC(=O)[C@H](CCC(=O)O)NC(=O)[C@@H](NC(=O)[C@H](CC(C)C)NC(=O)[C@](C)(Cc1ccc(O)cc1)NC(=O)[C@@H](CCC(=O)O)NC(=O)[C@@H](NC(=O)[C@H](Cc1ccccc1)NC(=O)[C@H](CCC(=O)O)NC(=O)C(C)(C)NC(=O)[C@H](CCC(N)=O)NC(=O)[C@H](C)NC(=O)[C@H](CCCCNC(=O)COCCOCCNC(=O)CC[C@H](NC(=O)CCCCCCCCCCCCCCC)C(=O)O)NC(=O)[C@H](CCCN)NC(=O)[C@H](CC(=O)O)NC(=O)[C@H](CC(C)C)NC(=O)[C@](C)(CC(C)C)NC(=O)[C@@H](NC(=O)[C@H](CO)NC(=O)[C@H](Cc1ccncc1)NC(=O)[C@H](CC(=O)O)NC(=O)[C@H](CO)NC(=O)[C@@H](NC(=O)[C@](C)(Cc1ccccc1F)NC(=O)[C@@H](NC(=O)CNC(=O)[C@H](CCC(=O)O)NC(=O)C(C)(C)NC(=O)[C@@H](N)Cc1ccc(O)cc1)[C@@H](C)O)[C@@H](C)O)[C@@H](C)CC)[C@@H](C)CC)[C@@H](C)CC)C(=O)N[C@@H](CO)C(=O)N[C@@H](CO)C(=O)NCC(=O)N[C@@H](C)C(=O)N1CCC[C@H]1C(=O)N1CCC[C@H]1C(=O)N1CCC[C@H]1C(=O)N[C@@H](CO)C(N)=O)C(=O)O [Example 13] | 0.0575 | 0.691 |  |  |  |  |  |  |  | EC50 (hGLP-1R; 0.1% bovine casein and 1.0% human serum albumin, 37° C., geometric mean, read-out: hGLP-1R EC50, nM (SEM, n)): 6.79 nM; EC50 (hGIPR; 0.1% bovine casein and 1.0% human serum albumin, 37° C., geometric mean, read-out: hGIPR EC50, nM (SEM, n)): 1.45 nM; EC50 (hGCGR; 0.1% bovine casein and 1.0% human serum albumin, 37° C., geometric mean, read-out: hGCGR EC50, nM (SEM, n)): > 9950 nM; EC50 (hGCGR; cAMP, incubated at 37° C., 0.1% bovine casein (no human serum albumin), geometric mean, read-out: hGCGR EC50, nM (SEM, n)): > 9950 nM
CC[C@H](C)[C@H](NC(=O)[C@H](CC(C)C)NC(=O)[C@](C)(Cc1ccc(O)cc1)NC(=O)[C@H](CCCCNC(=O)COCCOCCNC(=O)CC[C@H](NC(=O)CCCCCCCCCOc1ccc(C(=O)O)cc1)C(=O)O)NC(=O)[C@@H](NC(=O)[C@H](Cc1ccccc1)NC(=O)[C@H](CCCN)NC(=O)C(C)(C)NC(=O)[C@H](CCC(N)=O)NC(=O)[C@H](C)NC(=O)[C@H](CCC(N)=O)NC(=O)[C@H](CCCN)NC(=O)[C@H](CC(=O)O)NC(=O)[C@H](CC(C)C)NC(=O)[C@](C)(CC(C)C)NC(=O)[C@@H](NC(=O)C(C)(C)NC(=O)[C@H](Cc1ccncc1)NC(=O)[C@H](CC(=O)O)NC(=O)[C@H](CO)NC(=O)[C@@H](NC(=O)[C@](C)(Cc1ccccc1F)NC(=O)[C@@H](NC(=O)CNC(=O)[C@H](CCC(=O)O)NC(=O)C(C)(C)NC(=O)[C@@H](N)Cc1ccc(O)cc1)[C@@H](C)O)[C@@H](C)O)[C@@H](C)CC)[C@@H](C)CC)C(=O)N[C@@H](CCCCNC(=O)COCCOCCNC(=O)CC[C@H](NC(=O)CCCCCCCCCOc1ccc(C(=O)O)cc1)C(=O)O)C(=O)NCC(=O)NCC(=O)N1CCC[C@H]1C(=O)N[C@@H](CO)C(=O)N[C@@H](CO)C(=O)NCC(=O)N[C@@H](C)C(=O)N1CCC[C@H]1C(=O)N1CCC[C@H]1C(=O)N1CCC[C@H]1C(=O)N[C@@H](CO)C(N)=O [Example 463] |  |  | 111 | 0.267 | 0.0183 | 0.0124 | > 9950 | > 9950 | 0.143 | Emax (hGIPR; HEK293, read-out: hGIPR Emax, % ± SEM, cAMP, 37° C., 0.1% bovine casein, arithmetic mean): 91.4%; EC50 (hGIPR; hGIPR EC50, nM (SEM, n), cAMP, 37° C., 0.1% bovine casein and 1.0% human serum albumin, geometric mean (SEM, n)): 0.35 nM
